Measured values from PubChem BioAssay (NCI).
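48-hour exposure; five concentrations; linearly interpolated endpoints. At the TGI there is no net growth.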

Columns and labels:
Assay in all cases: inhibition of tumour cell growth, NCI panel, 48 h
[1] = tested on: RPMI-8226 leukemia
[2] = tested on: SN12C renal
[3] = tested on: NCI-H460 lung
[4] = tested on: EKVX NSCLC
[5] = tested on: IGROV1 ovarian
[6] = tested on: NCI-H23 lung
[7] = tested on: CCRF-CEM leukemia
[8] = tested on: ACHN renal
[9] = tested on: DU-145 prostate
[10] = tested on: OVCAR-4 ovarian
[11] = tested on: OVCAR-5 ovarian
[12] = tested on: SK-MEL-28 melanoma
[13] = tested on: UACC-62 melanoma
[14] = tested on: RXF 393 renal
[15] = tested on: MOLT-4 leukemia
[16] = tested on: LOX IMVI melanoma
[17] = tested on: SF-539 CNS
[18] = tested on: HT29 colon
[19] = tested on: SR leukemia
[20] = tested on: HOP-62 NSCLC
[21] = tested on: MDA-N
[22] = tested on: HL-60(TB) leukemia
[23] = tested on: A549 NSCLC
[24] = tested on: OVCAR-3 ovarian
[25] = tested on: U251 CNS
[26] = tested on: PC-3 prostate
[27] = tested on: OVCAR-8 ovarian
[28] = tested on: SW-620 colon
[29] = tested on: NCI-H226 lung
[30] = tested on: SK-MEL-2 melanoma
[31] = tested on: NCI-H522 lung
[32] = tested on: HS 578T breast
[33] = tested on: HCT-15 colon
[34] = tested on: UO-31 renal
[35] = tested on: MDA-MB-231 breast
[36] = tested on: UACC-257 melanoma
[37] = tested on: BT-549 breast
[38] = tested on: HOP-92 NSCLC
[39] = tested on: MALME-3M melanoma
[40] = tested on: COLO 205 colon
[41] = tested on: M14 melanoma
[42] = tested on: HCT-116 colon
[43] = tested on: MCF7 breast
[44] = tested on: 786-0 renal
[45] = tested on: K-562 leukemia
[46] = tested on: NCI/ADR-RES ovarian
[47] = tested on: TK-10 renal
[48] = tested on: SK-OV-3 ovarian
[49] = tested on: KM12 colon
[50] = tested on: SNB-19 CNS
[51] = tested on: SF-295 CNS
[52] = tested on: MDA-MB-435

`COc1ccc2[nH]cc(CCNC(=O)[C@H](Cc3ccccc3)NC(=O)[C@@H](NCC(F)(F)F)C(C)C)c2c1` showed a TGI [1] of 23.8 µM, a TGI [2] of 49 µM and a TGI [3] of 46.3 µM. The TGI [4] was 44 µM, the TGI [5] was 51.3 µM and the TGI [6] was 64.6 µM. The TGI [7] was 7.89 µM, the TGI [8] was 67.7 µM and the TGI [9] was 37.7 µM. For the same molecule, the TGI [10] was 32.3 µM, the TGI [11] was 34.8 µM and the TGI [12] was 31.8 µM. For the same molecule, the TGI [13] was 36.2 µM, the TGI [14] was 36.1 µM and the TGI [15] was 69.5 µM. It also gave a TGI [16] of 37.6 µM, a TGI [17] of 34.3 µM and a TGI [18] of 31.5 µM. The TGI [19] was greater than 100 µM, the TGI [20] was 36.2 µM and the TGI [21] was 34 µM. It also gave a TGI [22] of 46.2 µM, a TGI [23] of 70 µM and a TGI [24] of 31.1 µM. The TGI [25] was 39 µM, the TGI [26] was 40.9 µM and the TGI [27] was 54.4 µM. The TGI [28] was 81.6 µM, the TGI [29] was 44 µM and the TGI [30] was 38.3 µM. It also gave a TGI [31] of 32.1 µM, a TGI [32] of 39.6 µM and a TGI [33] of 42.2 µM. The TGI [34] was 68.3 µM, the TGI [35] was 35.9 µM and the TGI [36] was 37.8 µM. It also gave a TGI [37] of 42.5 µM, a TGI [38] of 28.4 µM and a TGI [39] of 51.9 µM. The TGI [40] was 32.3 µM, the TGI [41] was 34.1 µM and the TGI [42] was 32 µM. The TGI [43] was 36.5 µM, the TGI [44] was 35.1 µM and the TGI [45] was greater than 100 µM. For the same molecule, the TGI [46] was 41 µM, the TGI [47] was 57.4 µM and the TGI [48] was 33.3 µM. The TGI [49] was 49.7 µM, the TGI [50] was 84.8 µM and the TGI [51] was 25.2 µM. The TGI [52] was 34.8 µM.
